Results reported in patent US6713265B1 (Synaptic Pharmaceutical Corporation, priority 1999, dated 2004).
pKi: −log10 of the molar value. Where two headings read alike, the source gives them in different places.

Assays:
human Y5 receptor [1] = molecular target: T1, human Y5 receptor (Homo sapiens, UniProt Q15761); assay: Radioligand binding to membranes of cells expressing cloned human Y5 receptor; set-up: Ki Values, Human Y5; apparent Kd; pKd; Ki Values, Human Y5 (LM(tk-; The isolated clone (CG-19) turned out to contain a full length cDNA; The longest open reading frame encodes a 455 amino acid protein; details: Table 14; stably transfected LM(tk-) cells
T1 sequence (Q15761 1-445): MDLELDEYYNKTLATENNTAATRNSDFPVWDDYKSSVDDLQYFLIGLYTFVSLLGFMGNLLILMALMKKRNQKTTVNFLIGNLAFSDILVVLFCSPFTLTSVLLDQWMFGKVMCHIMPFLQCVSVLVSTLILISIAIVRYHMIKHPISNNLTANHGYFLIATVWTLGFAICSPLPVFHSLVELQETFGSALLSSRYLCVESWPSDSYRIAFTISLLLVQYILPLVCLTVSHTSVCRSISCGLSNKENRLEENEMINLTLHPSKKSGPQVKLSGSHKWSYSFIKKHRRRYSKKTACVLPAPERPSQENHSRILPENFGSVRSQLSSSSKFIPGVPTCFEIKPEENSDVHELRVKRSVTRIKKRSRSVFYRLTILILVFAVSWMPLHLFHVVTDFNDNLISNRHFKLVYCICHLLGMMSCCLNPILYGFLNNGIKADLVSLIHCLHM

human Y4 receptor = molecular target: T2, human Y4 receptor (Homo sapiens, UniProt P50391); assay: ^125I-PYY binding to membranes, cloned human Y4 receptor
T2 construct: expressed in transfected cells; host or cells: COS-7 (transient)
T2 sequence (P50391 whole entry): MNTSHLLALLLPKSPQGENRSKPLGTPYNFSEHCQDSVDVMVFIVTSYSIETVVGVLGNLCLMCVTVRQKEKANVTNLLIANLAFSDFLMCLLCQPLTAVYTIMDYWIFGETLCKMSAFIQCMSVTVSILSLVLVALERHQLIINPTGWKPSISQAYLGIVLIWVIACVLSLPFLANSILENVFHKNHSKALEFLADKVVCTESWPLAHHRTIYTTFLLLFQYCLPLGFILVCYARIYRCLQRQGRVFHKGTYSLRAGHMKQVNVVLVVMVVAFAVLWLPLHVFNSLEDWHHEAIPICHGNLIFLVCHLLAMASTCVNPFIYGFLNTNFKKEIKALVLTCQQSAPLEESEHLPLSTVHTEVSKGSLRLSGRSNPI

human Y2 receptor = molecular target: T3, human Y2 receptor (Homo sapiens, UniProt P49146); assay: ^125I-PYY binding to membranes, cloned human Y2 receptor
T3 construct: expressed in transfected cells; host or cells: COS-7 (transient)
T3 sequence (P49146 1-381): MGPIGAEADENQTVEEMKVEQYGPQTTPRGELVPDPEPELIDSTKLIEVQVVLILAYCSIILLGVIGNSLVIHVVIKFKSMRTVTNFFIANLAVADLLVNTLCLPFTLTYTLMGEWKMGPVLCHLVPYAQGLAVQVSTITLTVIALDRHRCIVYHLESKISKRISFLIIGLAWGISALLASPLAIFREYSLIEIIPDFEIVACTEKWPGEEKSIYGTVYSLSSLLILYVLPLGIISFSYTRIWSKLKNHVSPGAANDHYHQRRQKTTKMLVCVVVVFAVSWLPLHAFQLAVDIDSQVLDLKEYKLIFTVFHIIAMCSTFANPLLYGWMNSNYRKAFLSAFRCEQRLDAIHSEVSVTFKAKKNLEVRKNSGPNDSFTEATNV

human Y1 receptor = molecular target: T4, human Y1 receptor (Homo sapiens, UniProt P25929); assay: ^125I-PYY binding to membranes, cloned human Y1 receptor
T4 construct: expressed in transfected cells; host or cells: COS-7 (transient)
T4 sequence (P25929 1-384): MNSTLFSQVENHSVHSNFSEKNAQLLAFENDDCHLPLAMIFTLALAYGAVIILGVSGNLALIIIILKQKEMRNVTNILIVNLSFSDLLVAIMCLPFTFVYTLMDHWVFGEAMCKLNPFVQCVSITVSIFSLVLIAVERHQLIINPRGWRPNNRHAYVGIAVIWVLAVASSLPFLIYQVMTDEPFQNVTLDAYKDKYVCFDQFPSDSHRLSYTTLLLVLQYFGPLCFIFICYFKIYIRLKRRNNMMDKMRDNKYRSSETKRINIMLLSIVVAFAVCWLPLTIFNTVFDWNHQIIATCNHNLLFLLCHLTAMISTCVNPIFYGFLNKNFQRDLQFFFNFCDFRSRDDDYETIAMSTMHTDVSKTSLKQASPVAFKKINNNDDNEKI

human Y5 receptor [2] = molecular target: T1, human Y5 receptor; assay: Radioimmunoassay of cAMP, cells stably expressing human Y5 receptor; type: cell-based; set-up: Ki Values, Human Y5; apparent Kd; pKd; Ki Values, Human Y5 (LM(tk-; The isolated clone (CG-19) turned out to contain a full length cDNA; The longest open reading frame encodes a 455 amino acid protein; details: block of NPY-induced inhibition of cAMP accumulation
Experimental: LM(tk-) cells stably transfected with the human Y5 receptor were routinely converted from an adherent monolayer to a viable suspension. […] The cell suspension was maintained in a shaking incubator at 37° C., 5% CO2 for 24 hours. […] Alternatively, cells may be returned to adherent cell culture in complete DMEM by distribution into 96-well microtiter plates coated with poly-D-lysine (0.01 mg/ml) followed by incubation at 37° C., 5% CO2 for 24 hours.
The maximum inhibition of cAMP accumulation (Emax) and the concentration producing a half-maximal effect (EC50) were determined by nonlinear regression analysis according to a 4 parameter logistic equation.
The ability of the compounds to antagonize the Y-type receptors is reported as the Kb. […] The results shown are representative of at least three independent experiments.

5HT1F = molecular target: T5, 5HT1F (Homo sapiens, UniProt P30939); assay: Binding at cloned human 5HT1F receptor; details: read-out: pKi 5HT1F (converted)
T5 construct: expressed in transfected cells; host or cells: LM(tk-), line L-5-HT1F (ATCC 10957)
T5 sequence (P30939 whole entry): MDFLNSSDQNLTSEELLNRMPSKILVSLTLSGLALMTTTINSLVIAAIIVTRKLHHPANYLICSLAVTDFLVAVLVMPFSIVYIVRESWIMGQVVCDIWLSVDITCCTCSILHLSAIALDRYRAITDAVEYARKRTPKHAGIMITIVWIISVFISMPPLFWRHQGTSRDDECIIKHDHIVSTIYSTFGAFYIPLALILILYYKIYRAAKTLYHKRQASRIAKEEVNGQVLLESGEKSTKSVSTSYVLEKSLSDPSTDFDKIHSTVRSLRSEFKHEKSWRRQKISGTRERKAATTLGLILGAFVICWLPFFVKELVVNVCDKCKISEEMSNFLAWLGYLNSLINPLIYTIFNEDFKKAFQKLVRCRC
Excerpt: (§1) The cell line for the 5HT1Dα receptor, designated as Ltk-8-30-84, was deposited on Apr. 17, 1990, and accorded ATCC Accession No. CRL 10421. The cell for the 5HT1Dβ receptor, designated as Ltk-11, was deposited on Apr. 17, 1990, and accorded ATCC Accession No. CRL 10422. The cell line for the 5HT1E receptor, designated 5 HT1E-7, was deposited on Nov. 6, 1991, and accorded ATCC Accession No. CRL 10913. The cell line for the ^5HT1F receptor, designated L-5-HT1F, was deposited on Dec. 27, 1991, and accorded ATCC Accession No. ATCC 10957. Membrane preparations comprising these receptors were prepared as described below, and suspended in 50 mM Tris-HCl buffer (pH 7.4 at 37° C.) containing 10 mM MgCl2, 0.2 mM EDTA, 10 μM pargyline, and 0.1% ascorbate. The binding of compounds was determined in competition binding assays by incubation for 30 minutes at 37° C. in the presence of 5 nM [^3H]serotonin.

food intake = assay: Food intake in food-deprived rats; type: in vivo, rat; details: Rattus norvegicus, ip, 2 h; 30 mg/kg i.p., after 24h food deprivation, two hours; read-out: Two-hour food intake of food-deprived rats, percentage of intake compared to control rats, Mean
Experimental: After receipt, the animals are individually housed for the duration of the study and allowed free access to normal food together with tap water. The animals are maintained in a room with a 12 h light/dark cycle (8:00 a.m. to 8:00 p.m. light) at 24° C. and monitored humidity. After placement into individual cages the rats undergo a 4 day equilibration period, during which they are habituated to their new environment and to eating a powdered or pellet diet NAFAG, Gossau, Switzerland).
At the end of the equilibration period, food is removed from the animals for 24 hours starting at 8:00 a.m. At the end of the fasting period compound or vehicle may be administered to the animals orally or by injection intraperitoneally or intravenously. After 10-60 min. food is returned to the animals and their food intake is monitored at various time periods during the following 24 hour period. The food intake of animals treated with test compound may be calculated as a percentage of the food intake of control animals (i.e., animals treated with vehicle). Alternatively, food intake for each group of animals subjected to a particular experimental condition may be expressed as the mean±S.E.M.
Measurements were performed two hours after administration of the test compound.

5HT1E = 5HT1E (Homo sapiens, UniProt P28566); assay: Binding at cloned human 5HT1E receptor; details: read-out: pKi 5HT1E (converted)
Chain of 5HT1E (P28566 whole entry): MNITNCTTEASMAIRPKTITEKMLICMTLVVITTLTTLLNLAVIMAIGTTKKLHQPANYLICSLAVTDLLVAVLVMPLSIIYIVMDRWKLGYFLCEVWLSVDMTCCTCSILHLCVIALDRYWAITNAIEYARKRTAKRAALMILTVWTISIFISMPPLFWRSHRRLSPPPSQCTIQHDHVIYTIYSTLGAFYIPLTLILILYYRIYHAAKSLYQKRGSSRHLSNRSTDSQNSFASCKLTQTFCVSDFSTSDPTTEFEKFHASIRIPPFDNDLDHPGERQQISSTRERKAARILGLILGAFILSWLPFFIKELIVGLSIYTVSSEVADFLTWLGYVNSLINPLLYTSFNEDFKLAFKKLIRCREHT
Excerpt: as §1

rat Y2 receptor [3] = molecular target: T6, rat Y2 receptor (Rattus norvegicus, UniProt Q9ERC0); assay: ^125I-PYY binding to membranes, cloned rat Y2 receptor; set-up: expressed in transfected cells; host or cells: COS-7 (transient); details: BIBP 3226 at cloned rat Y-type receptors
T6 sequence (Q9ERC0 1-381): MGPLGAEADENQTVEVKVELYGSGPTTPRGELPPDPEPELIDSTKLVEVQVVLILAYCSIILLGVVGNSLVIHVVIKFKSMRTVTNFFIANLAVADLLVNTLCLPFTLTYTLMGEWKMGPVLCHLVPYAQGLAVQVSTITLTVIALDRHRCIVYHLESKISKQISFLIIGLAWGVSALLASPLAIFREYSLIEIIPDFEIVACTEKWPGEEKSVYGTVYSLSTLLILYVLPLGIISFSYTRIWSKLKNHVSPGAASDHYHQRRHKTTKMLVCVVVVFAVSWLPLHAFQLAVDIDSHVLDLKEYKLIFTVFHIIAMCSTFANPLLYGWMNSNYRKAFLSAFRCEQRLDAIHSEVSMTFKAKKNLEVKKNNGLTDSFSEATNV

human Y5 receptor [4] = assay: Radioligand binding to membranes of cells expressing cloned human Y5 receptor; details: BIBP 3226 at cloned human Y-type receptors
rat Y5 receptor [5] = molecular target: T7, rat Y5 receptor (Rattus norvegicus, UniProt Q63634); assay: Radioligand binding to membranes of cells expressing cloned rat Y5 receptor; details: BIBP 3226 at cloned rat Y-type receptors
T7 construct: expressed in transfected cells; host or cells: COS-7 (transient, DEAE-dextran)
T7 sequence (Q63634 whole entry): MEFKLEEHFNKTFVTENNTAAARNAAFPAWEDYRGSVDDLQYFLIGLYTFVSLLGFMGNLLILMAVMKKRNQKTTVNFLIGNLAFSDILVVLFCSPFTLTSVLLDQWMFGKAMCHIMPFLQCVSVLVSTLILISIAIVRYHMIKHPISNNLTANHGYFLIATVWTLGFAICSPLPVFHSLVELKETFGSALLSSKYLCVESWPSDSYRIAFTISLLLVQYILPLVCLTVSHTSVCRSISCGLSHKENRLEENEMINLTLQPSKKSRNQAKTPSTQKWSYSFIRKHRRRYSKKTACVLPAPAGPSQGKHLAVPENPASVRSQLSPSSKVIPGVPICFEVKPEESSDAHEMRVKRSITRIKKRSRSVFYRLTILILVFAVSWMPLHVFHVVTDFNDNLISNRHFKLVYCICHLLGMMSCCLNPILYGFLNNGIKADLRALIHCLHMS

canine Y5 receptor = assay: Porcine ^125I-PYY binding to membranes of COS-7 cells transfected with canine Y5 receptor; details: COS-7 transient
rat Y5 receptor [6] = assay: Radioimmunoassay of cAMP, 293 cells stably expressing rat Y5 receptor; type: cell-based; details: concentrations up to 1 μM
rat Y4 receptor = molecular target: T8, rat Y4 receptor (Rattus norvegicus, UniProt Q63447); assay: ^125I-PYY binding to membranes, cloned rat Y4 receptor; details: BIBP 3226 at cloned rat Y-type receptors
T8 construct: expressed in transfected cells; host or cells: COS-7 (transient)
T8 sequence (Q63447 whole entry): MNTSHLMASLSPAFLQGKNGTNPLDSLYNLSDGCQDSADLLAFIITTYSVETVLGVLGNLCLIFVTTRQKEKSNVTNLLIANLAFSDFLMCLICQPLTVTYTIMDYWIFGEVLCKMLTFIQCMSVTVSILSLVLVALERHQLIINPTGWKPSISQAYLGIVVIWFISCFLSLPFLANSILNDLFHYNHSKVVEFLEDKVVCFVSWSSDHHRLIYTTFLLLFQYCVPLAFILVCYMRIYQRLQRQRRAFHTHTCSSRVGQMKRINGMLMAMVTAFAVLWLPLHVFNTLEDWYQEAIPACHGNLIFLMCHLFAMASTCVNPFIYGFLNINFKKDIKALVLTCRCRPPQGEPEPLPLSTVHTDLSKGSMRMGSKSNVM

rat Y2 receptor [7] = molecular target: T6, rat Y2 receptor; assay: Antagonism of NPY- or PP-induced activation of rat Y2 receptors; type: cell-based; details: concentrations up to 1 μM

NCC(Cc1ccccc1)Nc1cccc2ccccc12 (stereo not shown) [Compound 28]
pKi (human Y5 receptor [1]): 4.72 | pKi (human Y4 receptor; Table 14, stably transfected LM(tk-) cells): < 4.00 | pKi (human Y2 receptor): < 4.12 | pKi (human Y1 receptor): < 4.00 | Y5 receptor antagonist activity (human Y5 receptor [2]): Y5 receptor antagonist

O=S(=O)(NC[C@H]1CC[C@H](CNC(CO)Cc2ccc(Cl)cc2)CC1)c1cccc2ccccc12 (stereo partly drawn) [Compound 25, Naphthalene-1-sulfonic Acid trans-(4-{[2-(4-Chlorophenyl)-1-hydroxymethyl-ethylamino]-methyl}-cyclohexylmethyl)-amide]
pKi (human Y4 receptor; read-out: Binding Affinity Ki vs. ^125I-PYY, Human Receptor Y4, Table 14, stably transfected LM(tk-) cells): 4.88 | Ki (5HT1F): ≥ 5.01 µM | response vs control in vivo at 30 mg/kg (food intake): 32% | pKi (human Y2 receptor; read-out: Binding Affinity Ki vs. ^125I-PYY, Human Receptor Y2, Table 14, stably transfected 293 cells (compound 1 also COS-7)): 6.07 | Ki (5HT1E): ≥ 5.01 µM

NC(N)=NCCC[C@@H](NC(=O)C(c1ccccc1)c1ccccc1)C(=O)NCc1ccc(O)cc1 [BIBP 3226]
pKi (rat Y2 receptor [3]): 4.18 | pKi (human Y5 receptor [4]): 4.31 | pKi (human Y4 receptor; BIBP 3226 at cloned human Y-type receptors, read-out: Ki, human Y4 receptor): 5.10 | pKi (rat Y5 receptor [5]): 4.60 | pKi (canine Y5 receptor): 4.77 | pKi (human Y2 receptor; BIBP 3226 at cloned human Y-type receptors, read-out: Ki, human Y2 receptor): 5.16 | antagonism of NPY- or PP-induced activation of rat Y5 receptors (rat Y5 receptor [6]): no evidence for antagonism | pKi (rat Y4 receptor): 6.38 | antagonism of NPY- or PP-induced activation of rat Y2 receptors (rat Y2 receptor [7]): no evidence for antagonism
